Experimental data reported in article PMC11167047 (Cell Death Discovery, 2024).
Where two headings read alike, the source gives them in different places.

Assays:
CDK4 = test system: CDK4; set-up: method as in Selleckchem.com; settings: ref Selleckchem.com; read-out: Enzymatic IC50 values, CDK4; cited from earlier work
Ramos cells [1] = assay: BrdU cell proliferation assay; format: cell-based, human; settings: 24 h, non-lethal doses
Method: The Bromodeoxyuridine (BrdU) Cell Proliferation kit from Millipore (#QIA58-1000TEST) was used to measure proliferation of cells. The manufacturer protocol has been optimized as described in the following. 1 × 10^4 cells per well were seeded in a 96-well plate. The cells were pre-incubated with the compounds of interest for 1 h. Following this, the BrdU solution was added and the cells were incubated for a total of 24 h. BrdU is an analog of the nucleoside thymidine and is incorporated into the DNA of dividing cells during replication. Culture medium was removed and cells were fixed and denatured with Fixative/Denaturing solution for 30 min at room temperature. Since suspension cells were used, they had to be centrifuged at 1200 rpm for 5 min after each following step. After, the anti-BrdU-antibody was incubated for 1 h at RT. Cells were washed three times with washing buffer. The secondary antibody, which is coupled to HRP (horseradish peroxidase) was incubated for 30 min at RT. Again, cells were washed three times with washing buffer.
Then, the substrate solution was added, that contained TMB (3,3’,5,5’-Tetramethylbenzidine), which is oxidized by HRP. Oxidation of TMB causes a color change from colorless to blue. The intensity of color change is correlated with the number of bound peroxidases, which depends on the quantity of primary antibodies and therefore on the content of the incorporated BrdU. If the cells are not proliferating, no BrdU is incorporated, resulting in a weak signal.
After 15 min incubation time the stopping reagent was added, causing a pH change and resulting in a color change from blue to yellow. The colored reaction product was quantified at 450 nm using a spectrophotometer. For all measurements, three technical replicates were made. The control was set to 100% proliferation, and the treated cells were normalized to the control. The results were visualized using GraphPad Prism 7.

CDK1 = settings: read-out: Enzymatic IC50 values, CDK1, cited from earlier work
cyclin B1 expression = assay: immunoblotting of cyclin B1 in Ramos cells; format: cell-based, human; settings: 24 h
Method: (§1) Cells were seeded at a density of 2 × 10^6 cells, treated as specified and harvested by centrifugation at 3000 rpm for 5 min, followed by freezing in liquid nitrogen. The cell pellets were thawed on ice and quick-frozen and defrozen in liquid nitrogen for three times, then lysed on ice in lysis buffer (20 mM Tris-HCl, 150 mM NaCl, 1% v/v Triton X-100, 0.5 mM EDTA, 10 mM NaF, 2.5 mM Na4P2O7, protease inhibitor (Sigma, #P2714)) for 30 min, accompanied by vortexing. Subsequently, centrifugation 13,300 rpm for 15 min purified cell lysates from cell debris. The supernatant was transferred to a new tube and the protein concentration was determined by Bradford assay. The samples were diluted with sample buffer. SDS-Page and Western Blot were conducted in accordance with standard workflows. […] The antibody baths were stored at 4 °C and re-used.
(§2) The density of the individual protein band was determined using Image Studio^TM Lite Version 5.2. The density of each protein was divided by the average of all bands of this protein. The ratios of the protein of interest were normalized to the ratio of the respective loading control. To determine the fold change, each normalized ratio was divided by the normalized band of the control line (untreated cells). Fold change is 1 for the control line, n ≥ 2. The results are shown as mean ± standard deviation and were visualized with GraphPad Prism 7.

Ramos cells [2] = assay: cell cycle analysis (Nicoletti assay); format: cell-based, human; settings: 24 h, sublethal dose, with QVD
Method: DNA content during cell cycle and hypodiploid apoptotic nuclei were measured by the method of Nicoletti et al.. […] Hypodiploid nuclei were measured in logarithmic mode for apoptosis determination. Flow-cytometry analysis was performed on an LSRFortessa^TM (Becton, Dickinson, Heidelberg, Germany) and data analysis was performed using FlowJo_V10 (BD Biosciences).

Ramos = assay: AlamarBlue viability assay; format: cell-based, human; settings: Homo sapiens, Ramos, 24 h, read-out: IC50 (Ramos)
[3] = test system: retinoblastoma (RB) protein phosphorylation; assay: immunoblotting of phospho-RB in Ramos cells; format: cell-based, human; settings: up to 24 h
Method: as §1, §2

[4] = test system: RNA polymerase II phosphorylation at Ser2; assay: immunoblotting of p-Ser2 RNA polymerase II in Ramos cells; format: cell-based, human; settings: 0.1 and 1 µM (R547 1 µM), 4-24 h
Method: as §1, §2

CDK5 = settings: read-out: Enzymatic IC50 values, CDK5, cited from earlier work
CDK9 = settings: read-out: Enzymatic IC50 values, CDK9, cited from earlier work
CDK2 = settings: read-out: Enzymatic IC50 values, CDK2, cited from earlier work
CDK6 = test system: CDK6; set-up: method as in Selleckchem.com; settings: ref Selleckchem.com; read-out: Enzymatic IC50 values, CDK6; cited from earlier work

Compound | IC50 (CDK4) [nM] | proliferation (BrdU incorporation) (Ramos cells [1]) | IC50 (CDK1; ref Selleckchem.com) [nM] | IC50 (CDK9; ref Selleckchem.com) [nM] | IC50 (Ramos; cytotoxicity) [nM] | IC50 (CDK2; ref Selleckchem.com) [nM] | other results
COc1ccc(F)c(F)c1C(=O)c1cnc(NC2CCN(S(C)(=O)=O)CC2)nc1N [R547, [4-amino-2-(1-methanesulfonylpi peridin-4-ylamino)pyrimidin-5-yl](2,3-difluoro-6-methoxyphenyl) methanone, reference compound] | […] | […] | 2 | – | – | – | expression of cyclin B1 (cyclin B1 expression): rather increased the expression of cyclin B1; effect on cell cycle phases (Ramos cells [2]): pronounced G2 arrest; IC50 (Ramos): 1800 nM; phosphorylation of RB at p-Thr821 ([3]; 0.1 and 1 µM (R547 1 µM)): loss of phosphorylation; phosphorylation of RB at p-Ser249 and p-Thr252 ([3]; 0.1 or 1 µM (R547 1 µM)): completely abrogated the phosphorylation of RB within 4 h; phosphorylation of RNA polymerase II at Ser2 [4]: less pronounced
CC(C)(C)c1cnc(CSc2cnc(NC(=O)C3CCNCC3)s2)o1 [SNS-032] | – | – | – | […] | 710 | – | IC50 (CDK5; ref Selleckchem.com): […]
CCc1cnn2c(NCc3ccc[n+]([O-])c3)cc(N3CCCC[C@H]3CCO)nc12 [dinaciclib] | – | substantial decrease in proliferation | – | – | – | – | –
CN1CC[C@H](c2c(O)cc(O)c3c(=O)cc(-c4ccccc4Cl)oc23)[C@H](O)C1 [flavopiridol] | […] | – | […] | […] | 140 | […] | IC50 (CDK6): […]
COc1ccnc2[nH]cc(-c3ccnc(N)n3)c12 [meriolin 3] | – | substantial decrease in proliferation | – | – | 130 | – | IC50 (CDK5; ref [10, 12] of the supplement): 170 nM; IC50 (CDK9; ref [10, 12] of the supplement): 6 nM; IC50 (CDK1; ref [10, 12] of the supplement): 170 nM; IC50 (CDK2; ref [10, 12] of the supplement): 11 nM
CN1C/C=C/CCOc2cccc(c2)-c2ccnc(n2)Nc2cccc(c2)C1 [zotiraciclib] | – | – | 9 | 3 | 170 | 5 | –
